Data from ChEMBL document CHEMBL1201862, “PubChem BioAssay data set” (2004).
Where “and” joins values, the source holds several entries; their conditions need not be identical. Equal values may be shown once.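 Method: 48-hour compound exposure of cells in 96-well plates, five concentrations, linear interpolation of endpoints. GI50: concentration for 50% inhibition of growth.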 Calls of active or inactive are those of the source. Cut-off read from the data, not from the text of the source: active = GI50 up to about 1.1 µM and inactive = higher.

Legend:
Experiment in all cases: NCI anticancer screen, dose series, 48 h
786-0 = test system: 786-0
A549 = test system: A549
ACHN = test system: ACHN
CAKI-1 = test system: CAKI-1
HCC 2998 = test system: HCC 2998
HCT-116 = test system: HCT-116
HL-60 = test system: HL-60
HT-29 = test system: HT-29
IGROV-1 = test system: IGROV-1
K562 = test system: K562
KM12 = test system: KM12
LOX IMVI = test system: LOX IMVI
LXFL 529 = test system: LXFL 529
M19-MEL = test system: M19-MEL
Malme-3M = test system: Malme-3M
NCI-H226 = test system: NCI-H226
NCI-H460 = test system: NCI-H460
NCI-H522 = test system: NCI-H522
OVCAR-3 = test system: OVCAR-3
OVCAR-4 = test system: OVCAR-4
OVCAR-5 = test system: OVCAR-5
OVCAR-8 = test system: OVCAR-8
RPMI-8226 = test system: RPMI-8226
RXF 631 = test system: RXF 631
SF-295 = test system: SF-295
SF-539 = test system: SF-539
SK-MEL-28 = test system: SK-MEL-28
SN12C = test system: SN12C
SNB-75 = test system: SNB-75
SNB-78 = test system: SNB-78
SR = test system: SR
TK-10 = test system: TK-10
U-251 = test system: U-251
UACC-62 = test system: UACC-62
UO-31 = test system: UO-31
A498 = test system: A498
KM-20L2 = test system: KM-20L2
M14 = test system: M14
NCI-H23 = test system: NCI-H23
SF-268 = test system: SF-268
SK-OV-3 = test system: SK-OV-3
SNB-19 = test system: SNB-19
SW-620 = test system: SW-620
UACC-257 = test system: UACC-257

Measured: GI50

CC1OC(n2ncc(=O)[nH]c2=O)C=CC1=O (stereo not given)
inactive: 786-0 36.3 µM and 55.2 µM | A549 > 100 µM | ACHN 27.9 µM and 37.9 µM | CAKI-1 > 100 µM | HCC 2998 > 100 µM | HCT-116 30.4 µM and 55.8 µM | HL-60 26.2 µM and 23.7 µM | HT-29 41.8 µM and 52.6 µM | IGROV-1 > 100 µM | K562 33.1 µM and 44 µM | KM12 46.1 µM and 63 µM | LOX IMVI > 100 µM | LXFL 529 > 100 µM and 59 µM | M19-MEL 50.8 µM and 71.3 µM | Malme-3M 22.1 µM and 18.8 µM | NCI-H226 > 100 µM | NCI-H460 > 100 µM and 63.1 µM | NCI-H522 20 µM and 18.8 µM | OVCAR-3 95.3 µM | OVCAR-4 > 100 µM | OVCAR-5 > 100 µM | OVCAR-8 37.3 µM and 41.1 µM | RPMI-8226 33 µM and 24.3 µM | RXF 631 13.1 µM and 16.4 µM | SF-295 52.6 µM | SF-539 40.2 µM and 24.2 µM | SK-MEL-28 31.9 µM and 21.8 µM | SN12C 70.3 µM and 35.8 µM | SNB-75 44.5 µM and 55.5 µM | SNB-78 21.5 µM and 26.9 µM | SR 26.7 µM and 33.5 µM | TK-10 > 100 µM and 71.4 µM | U-251 50.7 µM and 41.2 µM | UACC-62 31.8 µM and 60.4 µM | UO-31 > 100 µM

Clc1ccc2c(c1)[nH]c1c2nc2ccccn21
inactive: 786-0 22.1 µM | A498 27.1 µM | A549 50.1 µM | HCT-116 21.2 µM | HT-29 21.9 µM | IGROV-1 30.8 µM | KM-20L2 27.9 µM | KM12 19.3 µM | M14 24.7 µM | NCI-H226 22.4 µM | NCI-H23 24.7 µM | NCI-H522 19.5 µM | RPMI-8226 23.7 µM | RXF 631 43 µM | SF-268 28.6 µM | SF-539 22.6 µM | SK-MEL-28 21.3 µM | SK-OV-3 30.3 µM | SNB-19 22.4 µM | SNB-78 24 µM | SR 25.1 µM | SW-620 18.5 µM | TK-10 > 10 µM | UACC-257 29.2 µM | UO-31 19.5 µM
